Here are results for seven molecules from patent publication US20070077316A1, “Compositions and methods for treating and preventing virus infections” (priority 2005, published 2007).

One series has as its system HRV14-induced vNOX. Description: Spectrophotometric vNOX activity assay (NADH oxidation) with HRV-infected MCF-10A cells.
In series [1] the test system is tNOX-like activity (vNOX). Description: NADH oxidase activity at the surface of HRV14-infected MCF-10A cells (tNOX-like activity, 22 min period). Particulars: 1 μM, added after 45 min. The series is classed as biochemical, human. The method, then:
FIG. 11: NADH oxidase activity assayed for 90 min at the surface of MCF-10A human mammary epithelial cells. Capsaicin (1 μM) was added after 45 min and the assay was continued for an additional 45 min. Top Panel: No virus. Bottom Panel: MCF-10A human mammary cells infected with HRV 14. The MCF-10A cells normally lack a drug-inhibited NOX activity (lack tNOX). The normal, capsaicin-resistant constitutive NOX activity with a period length of 24 min is shown by the single downward pointing arrows. The triple arrows are tNOX-like activities with a period length of 22 min and which were inhibited by capsaicin. This activity appeared only in the virus-infected cells (see also FIG. 12). The upward pointing arrows denote a capsaicin-stimulated activity sometimes observed in proliferating endothelial cells present both with and without virus. tNOX-like activities (triple arrows) inhibited by 1 μM capsaicin now dominate the activity pattern.
FIG. 12: As in FIG. 11 except 20 h post-infection with HRV 14. Top Panel: No virus. The control MCF-10A cells normally lack a drug-inhibited NOX activity (lack tNOX). Bottom Panel: MCF-10A cells 20 h post infection with HRV 14. The normal, capsaicin-resistant constitutive NOX activity with a period length of 24 min is shown by the single downward pointing arrows. […]

The subject of the next series is HRV14. Description: HRV14 cytopathic effect in human osteoblast (hFOB) cells. As to conditions: between 1 and 1000 nM.
The next series relates to MT-2 cells. The series can be described thus: Toxicity to non-infected MT-2 cells by MTT utilization. In kind it is cell-based, human. The method, then:
After 5 days, 20 μl of MTT stock solution (7.5 mg/ml) was added. […] Subsequently, 100 μl of 10% v/v Triton X100 in acidified isopropanol was added, and absorbance was determined at 550 nm with reference at 630 nm. The cytotoxic effect of EGCg was reflected by a decrease of the cell viability of mock infected cells in the presence of EGCg in comparison to mock infected cells without EGCg (OD 492 nm) was lower than the value of mock infected cells without EGCg. The cytotoxicity values are given as negative values. Positive values are recorded for a stimulatory effect on cell viability and/or an increase in cell proliferation. Testing the antiviral potency of various compositions was accomplished as follows. EGCg and EC were from Sigma (St. Louis, Mo.). Stock solutions of 100 mM were prepared in ethanol and serially diluted with water between 10^−3 molar and 10^−9 molar. […] Each experiment was in a fourfold assay.

The mark [2] stands for this setting: read-out: EC50 Cell Production I (Mar. 24, 2003), 73 h hrv-infected MCF-10A cells.
The mark [3] stands for this setting: read-out: EC50 inhibition of vNOX.
[4] abbreviates: read-out: EC50 Cell Production II (Apr. 01, 2003), 73 h hrv-infected MCF-10A cells.

“And” between values parts separate entries of the source, which are not always exact repeats. Equal entries are not always repeated. Where two headings read alike, the source gives them in different places.

Take `CC(C)Cc1ccc(C(C)C(=O)O)cc1` (stereo not drawn) [Ibuprofen]: the “EC50 inhibition of vNOX, range in words” value with HRV14-induced vNOX is “micromolar range”. Also, the EC50 with HRV14-induced vNOX (setting [2]) was 1000 nM; in the series on HRV14-induced vNOX (setting [3]) it was roughly 10000 nM.
For `COc1cc(CNC(=O)CCCC/C=C/C(C)C)ccc1O` [Capsaicin], the EC50 with HRV14-induced vNOX (read-out: EC50 Cell Production IV (May 01, 2003), 72 h HRV-infected MCF-10A cells) came to 1 nM. Moreover, the “tNOX-like activities with a period length of 22 min” value in series [1] was “inhibited”.
With `[Cl-].[Cl-].[Zn+2]` [ZnCl2, zinc chloride], the EC50 is 10 nM in the series with HRV14-induced vNOX (setting [2]); 10 nM in the series with HRV14-induced vNOX (setting [4]); ~10 nM and 10 nM in the series on HRV14-induced vNOX (setting [3]). The entries for the “reduction of the cytopathic effect” value in the series on HRV14 (virus dilution of 1:20) and in the series with HRV14 (virus dilution of 1:50) were 71±9% and 50%±14%, respectively.
Turning to `Oc1cc(O)c2c(c1)O[C@H](c1ccc(O)c(O)c1)[C@H](O)C2` [EC, (−)-epicatechin], in the series with MT-2 cells, the “toxicity by MTT utilization” value is recorded as “no toxicity”.
On to `COc1ccc2cc([C@H](C)C(=O)O)ccc2c1` [Naproxen], for which the “EC50 inhibition of vNOX, range in words” value in the series with HRV14-induced vNOX is given as “micromolar range”. Besides, the EC50 in the series on HRV14-induced vNOX (setting [2]) was 5000 nM; in the series with HRV14-induced vNOX (setting [4]), 2000 nM; in the series on HRV14-induced vNOX (setting [3]), roughly 10000 nM.
Consider `COc1cc(CN)ccc1O` [Vanillylamine], for which the EC50 in the series with HRV14-induced vNOX (setting [3]) was 0.1 nM.
For the molecule `CC(=O)Nc1ccc(O)cc1` [Acetaminophen], in the series with HRV14-induced vNOX, the “EC50 inhibition of vNOX, range in words” value is listed as “micromolar range”. Moreover, in the series on HRV14-induced vNOX (setting [2]), the EC50 was found to be 1000 nM.
